Assay results from ChEMBL document CHEMBL1201862, “PubChem BioAssay data set” (2004).
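Tested at 5 concentrations; 48 h exposure; 96-well plates; endpoints linearly interpolated, else capped at highest concentration. GI50: concentration for 50% inhibition of growth.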 Activity calls are given as the source filed them. No stated cut-off is given here; in the data, active = GI50 up to about 1.1 µM and inactive = higher.

Experiments:
Assay in all cases: growth of human tumour cells (NCI), 48 h
LXFL 529 = tested on: LXFL 529
M19-MEL = tested on: M19-MEL
RXF 631 = tested on: RXF 631
KM-20L2 = tested on: KM-20L2
DMS-114 = tested on: DMS-114
DMS-273 = tested on: DMS-273
HOP-18 = tested on: HOP-18
SNB-78 = tested on: SNB-78
XF498 = tested on: XF498

Measured: GI50

COC(=O)C1CC(C(=O)OC)c2nc3cc(C)c(C)cc3nc21 (configuration not stated)
inactive: LXFL 529 > 100 µM | M19-MEL > 100 µM | RXF 631 > 100 µM | KM-20L2 > 100 µM | DMS-114 > 100 µM | DMS-273 > 100 µM | HOP-18 41.7 µM | SNB-78 > 100 µM | XF498 > 100 µM

CCOc1ccccc1/N=N/c1ccc2oc(=O)c(C(C)=O)cc2c1
inactive: LXFL 529 > 100 µM | M19-MEL > 100 µM | KM-20L2 > 100 µM | DMS-114 > 100 µM | DMS-273 > 100 µM | SNB-78 24.4 µM | XF498 30.1 µM

O=C1CCC2(c3ccccc3)OCC([C@@H](O)c3ccccc3)N12 (some centres not stated)
inactive: M19-MEL > 100 µM | KM-20L2 > 100 µM | DMS-114 > 100 µM | DMS-273 > 100 µM | HOP-18 > 100 µM | SNB-78 > 100 µM | XF498 > 100 µM

O=[N+]([O-])c1cc(-c2nnc(S)[nH]2)ccc1O
inactive: LXFL 529 > 100 µM | M19-MEL 86.3 µM | RXF 631 > 100 µM | KM-20L2 > 100 µM | DMS-114 32.4 µM | DMS-273 67.6 µM | SNB-78 > 100 µM

C[N+](C)(C)CC1CCCC/C1=N\O (configuration not stated)
inactive: LXFL 529 > 100 µM | RXF 631 > 100 µM | KM-20L2 > 100 µM | DMS-114 > 100 µM | DMS-273 > 100 µM | HOP-18 > 100 µM | SNB-78 > 100 µM

CC(C)C1CNC2N1C(=O)C2(C)OCc1ccccc1 (configuration not stated)
inactive: LXFL 529 > 100 µM | M19-MEL > 100 µM | KM-20L2 > 100 µM | DMS-114 > 100 µM | DMS-273 > 100 µM

CN(C)CCCNc1ccnc2cccc([N+](=O)[O-])c12
inactive: KM-20L2 11.5 µM | SNB-78 12.9 µM

O=C(O)C1OC(Oc2cc(O)c3c(=O)cc(-c4ccc(O)cc4)oc3c2)C(O)C(O)C1O (configuration not stated)
inactive: LXFL 529 > 100 µM | M19-MEL > 100 µM | KM-20L2 > 100 µM | DMS-114 > 100 µM | DMS-273 > 100 µM | SNB-78 > 100 µM | XF498 33.6 µM

O=C(/C=C/c1c(O)ccc2ccccc12)c1cccc(O)c1
inactive: LXFL 529 > 83.6 µM | M19-MEL 17.5 µM | KM-20L2 > 100 µM | DMS-114 41.3 µM | DMS-273 > 63.5 µM | HOP-18 23 µM | SNB-78 > 100 µM | XF498 > 100 µM

COc1cc(NCC(C#N)C#N)ccc1/N=N/c1ccc(Cl)cc1
inactive: LXFL 529 18.3 µM | M19-MEL 19.3 µM | RXF 631 26.3 µM | KM-20L2 15.2 µM | DMS-114 18.5 µM | DMS-273 21.5 µM | HOP-18 21 µM | SNB-78 36.7 µM

COC(=O)C1=CCON(c2ccccc2)C1c1ccccc1 (configuration not stated)
inactive: LXFL 529 34.7 µM | M19-MEL 62.8 µM | KM-20L2 69.8 µM | DMS-114 48.3 µM | DMS-273 56.5 µM | HOP-18 > 100 µM | XF498 52 µM

Cc1cc(NCCCCCCCNc2cc(C)nc3cc([N+](=O)[O-])ccc23)c2ccc([N+](=O)[O-])cc2n1
inactive: LXFL 529 1.56 µM | M19-MEL 12.4 µM | RXF 631 7.93 µM | KM-20L2 10.8 µM | DMS-114 1.38 µM | DMS-273 4.29 µM | HOP-18 17.3 µM | SNB-78 15.9 µM | XF498 13.7 µM

O=C(O)c1ccc([Se][Se]c2ccc(C(=O)O)cc2)cc1
inactive: LXFL 529 23 µM | M19-MEL 19.5 µM | RXF 631 19 µM | KM-20L2 33 µM | DMS-114 20.6 µM | DMS-273 21.9 µM | HOP-18 29.4 µM | SNB-78 18.7 µM | XF498 31.7 µM

O=c1cc(-c2ccccc2)[nH]c2cc(Cl)cc(Cl)c12
inactive: LXFL 529 67.8 µM | M19-MEL 35.5 µM | DMS-114 26.4 µM | DMS-273 12.3 µM | HOP-18 20.8 µM

O=C1C2=C(c3ccccc31)C(c1ccccc1)NC(S)=N2 (configuration not stated)
inactive: LXFL 529 26.2 µM | M19-MEL 67.9 µM | RXF 631 43.2 µM | KM-20L2 42 µM | DMS-114 30.7 µM | DMS-273 26.9 µM | XF498 56 µM

COc1cc(O)c2c(c1O)C(=O)c1cc(C)ncc1C2=O
inactive: LXFL 529 18.6 µM | M19-MEL 7.91 µM | KM-20L2 17.2 µM | DMS-114 18.9 µM | HOP-18 > 50 µM | SNB-78 37.8 µM | XF498 20.6 µM

COc1ccc2nc(-c3cccs3)cc(C(O)CN3CCSCC3)c2c1 (configuration not stated)
inactive: LXFL 529 12.6 µM | M19-MEL 22.8 µM | KM-20L2 21.6 µM | DMS-114 12.2 µM | DMS-273 19.5 µM | HOP-18 19.8 µM | XF498 16.3 µM

N#CNc1nc(C(=O)Nc2ccc(Cl)cc2)cc(-c2ccccc2)n1
inactive: LXFL 529 > 100 µM | M19-MEL > 100 µM | RXF 631 > 100 µM | KM-20L2 > 100 µM | DMS-114 > 100 µM | DMS-273 > 100 µM | HOP-18 > 100 µM | SNB-78 > 100 µM | XF498 > 100 µM

Clc1ccc2[nH]c(CCSCCc3nc4ccc(Cl)cc4[nH]3)nc2c1
inactive: LXFL 529 6.18 µM | M19-MEL 14.4 µM | RXF 631 6.89 µM | DMS-273 13.4 µM | HOP-18 22.3 µM | XF498 14.2 µM

Cc1cc(Cl)ccc1NC1=NC(=O)C(CC(=O)Nc2ccc(Cl)cc2Cl)S1 (configuration not stated)
inactive: LXFL 529 > 100 µM | M19-MEL > 100 µM | RXF 631 > 100 µM | KM-20L2 > 100 µM | DMS-114 > 100 µM | DMS-273 > 100 µM | SNB-78 > 100 µM | XF498 38.1 µM

C/C=C/C=C/C=C/C=C/C(=O)O
inactive: LXFL 529 > 100 µM | RXF 631 > 100 µM | KM-20L2 > 100 µM | DMS-114 > 100 µM | DMS-273 > 100 µM | HOP-18 > 100 µM | SNB-78 > 100 µM

CC1CC(=O)C(CC(=O)O)[C@H]1C(C(=O)C(=O)Nc1cc(Cl)ccc1Cl)[N+](=O)[O-] (some centres not stated)
inactive: M19-MEL > 100 µM | KM-20L2 > 100 µM | DMS-114 > 100 µM | HOP-18 > 100 µM | XF498 > 100 µM

COc1cc2nc(-c3cccc(N(C)C)c3)cc(O)c2cc1OC
inactive: LXFL 529 5.22 µM | M19-MEL 5.55 µM | KM-20L2 2.11 µM | DMS-114 4.73 µM | DMS-273 3.85 µM | HOP-18 3.27 µM | SNB-78 5.83 µM | XF498 6.32 µM

Nc1ccc(O)c2c1C(=O)c1c(N)ccc(O)c1C2=O
inactive: LXFL 529 > 100 µM | M19-MEL > 100 µM | DMS-114 > 100 µM | DMS-273 > 100 µM | SNB-78 > 100 µM | XF498 > 100 µM
